{
  "source": "patent US5631002A",
  "about": "“Liniment for melanin inhibitors” (Shiseido Co., Ltd., priority 1994, dated 1997)",
  "tested_on": "melanin pigment deposition in skin after sunlight exposure",
  "experiment": "Whitening effect testing (hypochromic effect on sun-exposed upper arm skin of testees)",
  "format": "in vivo, human",
  "conditions": "applied twice daily for 4 weeks after sunlight exposure, 8 persons per group",
  "protocol": "40 testees were exposed to summer sunlight for 4 hours (2 hours a day for 2 days) and the skin of an inner lateral part of their upper arm was used as the subject of the test. Beginning after 5 days from the day they were exposed to the sunlight, each sample was applied to this skin once in the morning and once in the afternoon for 4 weeks. The panel was divided into 5 groups with 8 persons in each group. Testing was conducted using the following formulations.\nThe hypochromic effect after the application was evaluated based on the criteria below.\nSamples were prepared with the blend compositions described in the aforementioned test method, and the drugs listed in Table 2 were used to compare the whitening effect.\n40 testees were exposed to summer sunlight for 4 hours (2 hours a day for 2 days) and the skin of an inner lateral part of their upper arm was used as the subject of the test. Beginning after 5 days From the day they were exposed to the sunlight, each sample was applied to this skin once in the morning and once in the afternoon for 4 weeks. The panel was divided into 5 groups with 8 persons in each group. Testing was conducted using the following formulations.\nSamples were prepared with the blend compositions described in the aforementioned test method, and the drugs listed in Table 4 were used to compare the whitening effect.\nSamples were prepared with the blend compositions described in the aforementioned test method, and the drugs listed in Table 6 were used to compare the whitening effect.\n40 testees were exposed to summer sunlight for 4 hours (2 hours a day for 2 days) and the skin of an inner lateral part of their upper arm was used as the subject of the test. Beginning after 5 days from the day they were exposed to the sunlight, each sample was applied to this skin once in the morning and once in the afternoon for 4 weeks. The panel was divided into 5 groups 5 with 8 persons in each group. Testing was conducted using the following formulations.\nSamples were prepared with the blend compositions described in the aforementioned test Method, and the drugs listed in Table 8 were used to compare the whitening effect.",
  "data": [
    {"compound": "Oc1ccc(O)cc1", "note": "[Hydroquinone]", "values": [
      {"measurement": "Effect (hypochromic effect)", "setting": "Table 2, Blend Ratio 1.0 wt % in lotion", "result": "Δ (Δ: Very effective or effective on 30% to less than 50% testees)"},
      {"measurement": "Effect (hypochromic effect)", "setting": "Table 4, Blend Ratio 1.0 wt % in lotion", "result": "Δ (Δ: Very effective or effective on 30% to less than 50% testees)"},
      {"measurement": "Effect (hypochromic effect)", "setting": "Table 6, Blend Ratio 1.0 % in lotion", "result": "Δ (Δ: Very effective or effective on 30% to less than 50% testees)"},
      {"measurement": "Effect (hypochromic effect)", "setting": "Table 8, Blend Ratio (5) 1.0 in lotion", "result": "Δ (Δ: Very effective or effective on 30% to less than 50% testees)"}
    ]}
  ]
}
